# Laboratory results reported in patent publication US20240245711A1, “A 19-NOR C3,3-DISUBSTITUTED C21-N-PYRAZOLYL STEROID FOR THE TREATMENT OF MAJOR DEPRESSIVE DISORDER” (Sage Therapeutics, Inc., priority 2021, published 2024).
# “Also recorded” adds a separate entry of the source.
# Test system: adult subjects with Major Depressive Disorder
# Experiment: Phase 3 open-label 1-year study: safety and tolerability (TEAEs, SAEs, C-SSRS)
# Type: in vivo, human
# Procedure: Primary Objective: To determine the safety and tolerability of initial treatment and re-treatment(s) with Compound (1) in adults with Major Depressive Disorder (MDD) currently experiencing a major depressive episode (MDE) over a 1-year period.
# Study Population: Subjects were 18-75 years old, diagnosed with major depressive disorder (MDD) with a MADRS total score of ≥28 and a HAM-D total score of ≥20 at Screening and Day 1 (prior to dosing).
# Treatment Groups: The 30 mg and 50 mg dose groups were separated by time of enrollment. The study is comprised of two cohorts: one with Compound (1) 30 mg as a starting dose (30 mg Cohort: n=725), an initial cohort with Compound (1) 50 mg as a starting dose (50 mg Cohort: n=199). A patient receiving Compound (1) 30 mg could be dose reduced to 20 mg and patients receiving Compound (1) 50 mg could be dose reduced to 40 mg (based on tolerability). In all cohorts, Compound (1) is self-administered by patients as an oral therapy once nightly with food for 14 days.
# The study has a Screening Period of up to 28 days, a 14-day Treatment Period, and up to 1 year of Follow-up. FIG. 1 is an overview of the study.
# Antidepressants were permitted provided subjects were on a stable dose for at least 60 days prior to Day 1 and agreed to continue on the stable dose through the follow-up period (Day 42). Initiation of new antidepressants or any other medications that may potentially have an impact on efficacy or safety endpoints were not allowed between screening and completion of the Day 42 assessments.
# Eligible subjects were given Compound (1)—to be taken at home in the evening with meal.
# Subjects who continued in the Observation Period were monitored remotely via PHQ-9 assessment every two weeks. If PHQ-9 score was >=10 at any assessment, PHQ-9 assessment was switch to every week until the score came down below 10 or the subject was dosed with Compound (1) in a subsequent cycle, whichever was earlier. A subject was to come back to the site for HAM-D assessment within a week of PHQ-9 score >=10; if the HAM-D total score >=20 and at least 56 days had elapsed since the last dose of Compound (1), another dosing cycle of Compound (1) were to start. If any of these criteria were not met, the subject couldn't be treated with Compound (1) at that time. Without the trigger of PHQ-9>=10 the subject was to have a clinic visit every 8 weeks. A subject could have at most 5 cycles of treatment within a year. FIG. 2 is a depiction of the eligibility criteria of the study.
# Dose reduction from 30 mg to 20 mg or 50 mg to 40 mg was allowed in any treatment cycle if the safety and/or tolerability of the subject so warrants. […] Subjects who dose reduced from 30 mg to 20 mg still started with 30 mg in the next treatment cycle.
# The cohorts pertaining to the different doses that the subjects received were defined as following: • 50 mg cohort: This cohort includes subjects who have initiated treatment with 50 mg and received re-treatment with 50 mg only. • 30 mg cohort: This cohort includes subjects who have initiated treatment with 30 mg regardless of the dose they have received in re-treatments. • Low dose cohort: This cohort includes subjects who have initiated treatment with 30 mg and received re-treatment with 30 mg only. • Dose switch cohort: This cohort includes subjects who have received initial treatment with 30 mg and at least one subsequent re-treatment with 50 mg. • Study Period X: starts on the date of the first dose of Compound (1) in cycle X and goes up to one day prior to the first dose of the next cycle. […]
# [1] = 50 mg Cohort, one-year follow-up (Example 4)
# [2] = Low Dose Cohort, ATD use at period-specific baseline No, Study Period 1
# [3] = Low Dose Cohort, ATD use at period-specific baseline No, Study Period 2
smiles,measurement,setting,value
"C[C@@]1(O)CC[C@H]2[C@H](CC[C@@H]3[C@@H]2CC[C@]2(C)[C@@H](C(=O)Cn4cc(C#N)cn4)CC[C@@H]32)C1 [Compound (1), 1-(2-((3R,5R,8R,9R,10S,13S,14S,17S)-3-hydroxy-3,13-dimethylhexadecahydro-1H-cyclopenta[a]phenanthren-17-yl)-2-oxoethyl)-1H-pyrazole-4-carbonitrile]",Subjects with at least one TEAE leading to study drug discontinuation,30 mg Cohort (N = 725),19 (2.6%)
same,Subjects with at least one TEAE leading to study withdrawal,30 mg Cohort (N = 725),32 (4.4%)
same,Subjects with at least one serious TEAE,30 mg Cohort (N = 725),20 (2.8%)
same,"TEAE severity Mild, subjects n (%)",30 mg Cohort (N = 725),200 (27.6%)
same,"TEAE severity Moderate, subjects n (%)",30 mg Cohort (N = 725),248 (34.2%)
same,"TEAE severity Severe / subjects with at least one severe TEAE, n (%)",30 mg Cohort (N = 725),45 (6.2%)
same,Events of loss of consciousness,"30 mg and 50 mg, as of the cutoff date",No events of loss of consciousness
same,Possibly or probably related SAEs,50 mg Cohort,Confusional state; also recorded: Asthenia; also recorded: Delirium
same,Subjects with at least one serious TEAE,50 mg Cohort (N = 199),7 (3.5%)
same,"TEAE Arthralgia, subjects n (%)",50 mg Cohort (N = 199),1 (0.5%)
same,"TEAE Back Pain, subjects n (%)",50 mg Cohort (N = 199),0%
same,"TEAE Diarrhea, subjects n (%)",50 mg Cohort (N = 199),4 (2.0%)
same,"TEAE Dizziness, subjects n (%)",50 mg Cohort (N = 199),30 (15.1%)
same,"TEAE Dry Mouth, subjects n (%)",50 mg Cohort (N = 199),7 (3.5%)
same,"TEAE Fatigue, subjects n (%)",50 mg Cohort (N = 199),5 (2.5%)
same,"TEAE Headache, subjects n (%)",50 mg Cohort (N = 199),20 (10.1%)
same,"TEAE Insomnia, subjects n (%)",50 mg Cohort (N = 199),10 (5.0%)
same,"TEAE Nausea, subjects n (%)",50 mg Cohort (N = 199),11 (5.5%)
same,"TEAE Sedation, subjects n (%)",50 mg Cohort (N = 199),18 (9.0%)
same,"TEAE Somnolence, subjects n (%)",50 mg Cohort (N = 199),29 (14.6%)
same,"TEAE Upper Respiratory Tract Infection, subjects n (%)",50 mg Cohort (N = 199),1 (0.5%)
same,"TEAE severity Mild, subjects n (%)",50 mg Cohort (N = 199),45 (22.6%)
same,"TEAE severity Moderate, subjects n (%)",50 mg Cohort (N = 199),65 (32.7%)
same,"TEAE severity Severe / subjects with at least one severe TEAE, n (%)",50 mg Cohort (N = 199),15 (7.5%)
same,"Withdrawn in Treatment Cycle 1: Adverse event, n (%)",50 mg Cohort (n = 199),11 (5.5%)
same,Maximum severity of TEAEs reported by the majority of subjects,[1],mild to moderate
same,"TEAE Dizziness, subjects n (%)",[1],15.1%
same,"TEAE Headache, subjects n (%)",[1],12.7%
same,"TEAE Insomnia, subjects n (%)",[1],7.0%
same,"TEAE Nausea, subjects n (%)",[1],6.5%
same,"TEAE Sedation, subjects n (%)",[1],10.1%
same,"TEAE Somnolence, subjects n (%)",[1],16.1%
same,"TEAE tremor, subjects (n; %)",[1],5.5%
same,Subjects reporting TEAEs leading to discontinuation of study drug,"50 mg Cohort, one-year follow-up (Example 4), 13/199",6.5%
same,Subjects reporting TEAEs leading to withdrawal from study,"50 mg Cohort, one-year follow-up (Example 4), 16/199",8.0%
same,Subjects reporting at least one adverse event,"50 mg Cohort, one-year follow-up (Example 4), 137 of 199",68.8%
same,"Subjects reporting TEAEs leading to dose reduction, n/N","50 mg cohort, Cycle 2",2/26
same,Proportion of subjects reporting TEAEs,"50 mg cohort, as printed in b423 (46/76)",60.5%
same,Subjects reporting TEAEs leading to dose reduction,"50 mg cohort, overall (34/199)",17.1%
same,Tolerability,"Compound (1) 50 mg, 50 mg Cohort followed up to one year (Example 4)",generally well-tolerated
same,Subjects with at least one serious TEAE,Dose Switch Cohort (N = 80),1 (1.3%)
same,"TEAE Arthralgia, subjects n (%)",Dose Switch Cohort (N = 80),5 (6.3%)
same,"TEAE Back Pain, subjects n (%)",Dose Switch Cohort (N = 80),5 (6.3%)
same,"TEAE Diarrhea, subjects n (%)",Dose Switch Cohort (N = 80),11 (13.8%)
same,"TEAE Dizziness, subjects n (%)",Dose Switch Cohort (N = 80),7 (8.8%)
same,"TEAE Dry Mouth, subjects n (%)",Dose Switch Cohort (N = 80),3 (3.8%)
same,"TEAE Fatigue, subjects n (%)",Dose Switch Cohort (N = 80),8 (10.0%)
same,"TEAE Headache, subjects n (%)",Dose Switch Cohort (N = 80),13 (16.3%)
same,"TEAE Insomnia, subjects n (%)",Dose Switch Cohort (N = 80),5 (6.3%)
same,"TEAE Nausea, subjects n (%)",Dose Switch Cohort (N = 80),3 (3.8%)
same,"TEAE Sedation, subjects n (%)",Dose Switch Cohort (N = 80),11 (13.8%)
same,"TEAE Somnolence, subjects n (%)",Dose Switch Cohort (N = 80),10 (12.5%)
same,"TEAE Upper Respiratory Tract Infection, subjects n (%)",Dose Switch Cohort (N = 80),5 (6.3%)
same,"TEAE severity Mild, subjects n (%)",Dose Switch Cohort (N = 80),13 (16.3%)
same,"TEAE severity Moderate, subjects n (%)",Dose Switch Cohort (N = 80),36 (45.0%)
same,"TEAE severity Severe / subjects with at least one severe TEAE, n (%)",Dose Switch Cohort (N = 80),8 (10.0%)
same,Proportion of subjects reporting TEAEs,"Dose Switch cohort, as printed in b423 (37/48)",77.1%
same,Subjects reporting TEAEs leading to dose reduction,"Dose switch cohort, Cycle 1 while on 30 mg",2.5%
same,Subjects reporting TEAEs leading to dose reduction,"Dose switch cohort, Cycle 2 while on 30 mg",2.5%
same,Subjects reporting TEAEs leading to dose reduction,"Dose switch cohort, Cycle 3 while switched to 50 mg",4.2%
same,Subjects reporting TEAEs leading to dose reduction,"Dose switch cohort, Cycle 4 while switched to 50 mg",3.8%
same,Subjects reporting TEAEs leading to dose reduction,"Dose switch cohort, Cycle 5 while switched to 50 mg",17.4%
same,Subjects reporting TEAEs leading to dose reduction,"Dose switch cohort, overall (12/80)",15.0%
same,Possibly or probably related SAEs,Low Dose Cohort,Suicidal ideation
same,Subjects with at least one serious TEAE,Low Dose Cohort (N = 645),19 (2.9%)
same,"TEAE Arthralgia, subjects n (%)",Low Dose Cohort (N = 645),14 (2.2%)
same,"TEAE Back Pain, subjects n (%)",Low Dose Cohort (N = 645),18 (2.8%)
same,"TEAE Diarrhea, subjects n (%)",Low Dose Cohort (N = 645),43 (6.7%)
same,"TEAE Dizziness, subjects n (%)",Low Dose Cohort (N = 645),47 (7.3%)
same,"TEAE Dry Mouth, subjects n (%)",Low Dose Cohort (N = 645),40 (6.2%)
same,"TEAE Fatigue, subjects n (%)",Low Dose Cohort (N = 645),27 (4.2%)
same,"TEAE Headache, subjects n (%)",Low Dose Cohort (N = 645),90 (14.0%)
same,"TEAE Insomnia, subjects n (%)",Low Dose Cohort (N = 645),31 (4.8%)
same,"TEAE Nausea, subjects n (%)",Low Dose Cohort (N = 645),25 (3.9%)
same,"TEAE Sedation, subjects n (%)",Low Dose Cohort (N = 645),29 (4.5%)
same,"TEAE Somnolence, subjects n (%)",Low Dose Cohort (N = 645),76 (11.8%)
same,"TEAE Upper Respiratory Tract Infection, subjects n (%)",Low Dose Cohort (N = 645),52 (8.1%)
same,"TEAE severity Mild, subjects n (%)",Low Dose Cohort (N = 645),187 (29.0%)
same,"TEAE severity Moderate, subjects n (%)",Low Dose Cohort (N = 645),212 (32.9%)
same,"TEAE severity Severe / subjects with at least one severe TEAE, n (%)",Low Dose Cohort (N = 645),37 (5.7%)
same,"Withdrawn in Treatment Cycle 1: Adverse event, n (%)",Low Dose Cohort (n = 645),15 (2.3%)
same,Subjects with a TEAE leading to study drug discontinuation,[2],(3.2%)
same,Subjects with a Treatment cycle period AE leading to study withdrawal,[2],(3.7%)
same,Subjects with at least one TEAE,[2],(67.5%)
same,Subjects with at least one Treatment cycle period TEAE,[2],(53.6%)
same,Subjects with at least one Treatment cycle period serious TEAE,[2],(1.3%)
same,Subjects with at least one Treatment cycle period severe TEAE,[2],(2.6%)
same,Subjects with at least one Treatment period AE,[2],(51.2%)
same,Subjects with a TEAE leading to study drug discontinuation,[3],1 (0.8%)
same,Subjects with a Treatment cycle period AE leading to study withdrawal,[3],3 (2.5%)
same,Subjects with at least one TEAE,[3],75 (63.6%)
same,Subjects with at least one Treatment cycle period TEAE,[3],58 (49.2%)
same,Subjects with at least one Treatment cycle period serious TEAE,[3],0%
same,Subjects with at least one Treatment cycle period severe TEAE,[3],2 (1.7%)
